Test results taken from the NIST ThermoML archive (doi:10.1021/je400835u).

Experiment: xn = mol fraction of the nth substance listed
Conditions: 100 kPa, Liquid; for viscosity: Falling or rolling sphere viscometry; for mass density: Vibrating tube method

CCCCC1CCCCC1 [butylcyclohexane] + CCCCCCCCCCCCCC
Conditions | mass density, 293.15 K [kg/m3] | mass density, 298.15 K [kg/m3] | mass density, 303.15 K [kg/m3] | mass density, 308.15 K [kg/m3] | mass density, 313.15 K [kg/m3] | viscosity, 293.15 K [mPa·s] | viscosity, 298.15 K [mPa·s] | viscosity, 303.15 K [mPa·s] | viscosity, 308.15 K [mPa·s] | viscosity, 313.15 K [mPa·s]
x1 = 0.0516 | 764.33 | 760.8 | 757.26 | 753.73 | 750.2 | 2.28 | 2.052 | 1.86 | 1.694 | 1.553
x1 = 0.1 | 765.53 | 762 | 758.46 | 754.92 | 751.38 | 2.234 | 2.011 | 1.823 | 1.662 | 1.523
x1 = 0.2001 | 768.14 | 764.6 | 761.06 | 757.51 | 753.96 | 2.135 | 1.924 | 1.746 | 1.593 | 1.463
x1 = 0.2988 | 770.93 | 767.38 | 763.83 | 760.27 | 756.69 | 2.037 | 1.838 | 1.67 | 1.526 | 1.401
x1 = 0.4001 | 774.02 | 770.46 | 766.89 | 763.31 | 759.72 | 1.934 | 1.749 | 1.592 | 1.457 | 1.341
x1 = 0.498 | 777.26 | 773.68 | 770.08 | 766.49 | 762.88 | 1.834 | 1.662 | 1.517 | 1.391 | 1.282
x1 = 0.6006 | 780.95 | 777.36 | 773.74 | 770.12 | 766.49 | 1.728 | 1.571 | 1.436 | 1.32 | 1.218
x1 = 0.7005 | 784.9 | 781.27 | 777.63 | 773.98 | 770.33 | 1.625 | 1.481 | 1.358 | 1.25 | 1.155
x1 = 0.7999 | 789.23 | 785.57 | 781.9 | 778.21 | 774.53 | 1.521 | 1.391 | 1.279 | 1.18 | 1.092
x1 = 0.9002 | 794.07 | 790.38 | 786.66 | 782.94 | 779.22 | 1.416 | 1.299 | 1.199 | 1.109 | 1.029
x1 = 0.95 | 796.66 | 792.94 | 789.21 | 785.48 | 781.73 | 1.363 | 1.254 | 1.159 | 1.073 | 0.998
x1 = 1 | 799.44 | 795.7 | 791.95 | 788.19 | 784.41 | 1.296 | 1.196 | 1.107 | 1.027 | 0.958
